Test results as given in patent publication US7713953B2, “2-methylene-(22E)-25-(1-methylene-hexyl)-26,27-cyclo-22-dehydro-19-nor-vitamin D analogs” (Wisconsin Alumni Research Foundation, priority 2008, dated 2010).
Blank lines part the entries; values can stand above or below the compound they belong to.

Tests used:
HL-60 cells = experiment: HL-60 cell differentiation (nitro blue tetrazolium reduction); type: cell-based, human; settings: for EC50: FIG. 2
Method: The study drugs were dissolved in ethanol and the concentrations determined using UV spectrophotometry. Serial dilutions were prepared so that a range of drug concentrations could be tested without changing the final concentration of ethanol (≦0.2%) present in the cell cultures.
Human promyelocytic leukemia (HL60) cells were grown in RPMI-1640 medium containing 10% fetal bovine serum. The cells were incubated at 37° C. in the presence of 5% CO2.
HL60 cells were plated at 1.2×10^5 cells/ml. Eighteen hours after plating, cells in duplicate were treated with drug. Four days later, the cells were harvested and a nitro blue tetrazolium reduction assay was performed (Collins et al., 1979; J. Exp. Med. 149:969-974). The percentage of differentiated cells was determined by counting a total of 200 cells and recording the number that contained intracellular black-blue formazan deposits. Verification of differentiation to monocytic cells was determined by measuring phagocytic activity (data not shown).

[1] = molecular target: T1, full-length recombinant rat vitamin D receptor (Rattus norvegicus, UniProt P13053); experiment: Vitamin D receptor competitive binding with [3H]-1,25(OH)2D3; settings: full-length recombinant rat VDR; FIG. 1; read-out: Ki, competition with [3H]-1,25(OH)2D3 for binding to vitamin D receptor
T1 construct: Full-length recombinant rat receptor was expressed in E. coli BL21 (DE3) Codon Plus RIL cells; histidine tag (C); made in house; host or cells: E. coli BL21 (DE3) Codon Plus RIL
T1 sequence (P13053 1-423): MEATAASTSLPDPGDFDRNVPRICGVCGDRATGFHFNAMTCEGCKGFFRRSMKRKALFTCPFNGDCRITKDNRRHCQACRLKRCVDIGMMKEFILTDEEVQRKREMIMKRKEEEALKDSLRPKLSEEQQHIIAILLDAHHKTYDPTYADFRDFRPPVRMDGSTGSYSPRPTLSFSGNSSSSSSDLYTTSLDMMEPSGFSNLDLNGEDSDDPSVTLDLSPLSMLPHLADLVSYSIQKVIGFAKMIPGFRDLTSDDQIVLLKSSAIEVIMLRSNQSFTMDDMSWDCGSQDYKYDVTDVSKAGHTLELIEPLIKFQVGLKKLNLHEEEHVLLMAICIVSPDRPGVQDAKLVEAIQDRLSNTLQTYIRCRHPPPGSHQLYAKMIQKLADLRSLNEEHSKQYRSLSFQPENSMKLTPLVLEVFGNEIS
Method: Full-length recombinant rat receptor was expressed in E. coli BL21 (DE3) Codon Plus RIL cells and purified to homogeneity using two different column chromatography systems. The first system was a nickel affinity resin that utilizes the C-terminal histidine tag on this protein. The protein that was eluted from this resin was further purified using ion exchange chromatography (S-Sepharose Fast Flow). Aliquots of the purified protein were quick frozen in liquid nitrogen and stored at −80° C. until use. For use in binding assays, the protein was diluted in TEDK50 (50 mM Tris, 1.5 mM EDTA, pH7.4, 5 mM DTT, 150 mM KCl) with 0.1% Chaps detergent. The receptor protein and ligand concentration were optimized such that no more than 20% of the added radiolabeled ligand was bound to the receptor.
Radiolabeled and unlabeled ligands were added to 100 mcl of the diluted protein at a final ethanol concentration of ≦10%, mixed and incubated overnight on ice to reach binding equilibrium. The following day, 100 mcl of hydroxylapatite slurry (50%) was added to each tube and mixed at 10-minute intervals for 30 minutes. The hydroxylapaptite was collected by centrifugation and then washed three times with Tris-EDTA buffer (50 mM Tris, 1.5 mM EDTA, pH 7.4) containing 0.5% Titron X-100. […] Total binding was determined from the tubes containing only radiolabeled ligand.

vitamin D-deficient rats [2] = experiment: Bone calcium mobilization (serum calcium); type: in vivo, rat; settings: for bone calcium mobilization activity (serum calcium): rats on low calcium diet (0.02%), 4 consecutive daily ip doses
Method: (§1) Male, weanling Sprague-Dawley rats were placed on Diet 11 (0.47% Ca) diet+AEK oil for one week followed by Diet 11 (0.02% Ca)+AEK oil for 3 weeks. The rats were then switched to a diet containing 0.47% Ca for one week followed by two weeks on a diet containing 0.02% Ca. Dose administration began during the last week on 0.02% calcium diet. Four consecutive ip doses were given approximately 24 hours apart. Twenty-four hours after the last dose, blood was collected from the severed neck and the concentration of serum calcium determined as a measure of bone calcium mobilization. The first 10 cm of the intestine was also collected for intestinal calcium transport analysis using the everted gut sac method.

[3] = tested on: 24-hydroxylase (24 Ohase) gene promoter in ROS 17/2.8 (bone) cells; experiment: In vitro transcription assay (24-hydroxylase promoter luciferase reporter); type: cell-based
Method: Transcription activity was measured in ROS 17/2.8 (bone) cells that were stably transfected with a 24-hydroxylase (24 Ohase) gene promoter upstream of a luciferase reporter gene (Arbour et al., 1998). Cells were given a range of doses. Sixteen hours after dosing the cells were harvested and luciferase activities were measured using a luminometer.
RLU=relative luciferase units.

vitamin D-deficient rats [4] = experiment: Intestinal calcium transport (everted gut sac method); type: in vivo, rat
Method: as §1

[5] = times greater than the native hormone

- EC50 (HL-60 cells; Homo sapiens, HL-60): 0.8 nM
- Ki [1]: 0.3 nM
- EC50 ([3]; 24-hydroxylase gene, FIG. 3, read-out: EC50, transcriptional activity in bone cells): 0.08 nM
Compound: C=C1[C@H](O)CC(=C/C=C2\CCC[C@]3(C)[C@@H]([C@H](C)/C=C/[C@@H](O)C4(C(=C)CCCCC)CC4)CC[C@@H]23)C[C@H]1O [MM-49, 2-methylene-(22E)-25-(1-methylene-hexyl)-26,27-cyclo-22-dehydro-19-nor-1α,24(R)-dihydroxyvitamin D3]
- HL-60 cell differentiation activity relative to 1α,25-dihydroxyvitamin D3 (HL-60 cells; [5]): ~5 times
- bone calcium mobilization at 7020 pmol/day compared with native hormone at 780 pmol/day (vitamin D-deficient rats [2]; 7020 pmol/day for 4 consecutive days, FIG. 4B): did not result in the same mobilization of bone calcium
- dose giving the same mobilization of bone calcium as 1,25(OH)2D3 at 32 pmol/day (vitamin D-deficient rats [2]; 4 consecutive days, FIG. 4A): 260 pmol/day
- dose at which any substantial effect on bone calcium mobilization was seen (vitamin D-deficient rats [2]; FIG. 4A, first group of animals): 780 pmol/day
- dose at which any substantial effect on bone calcium mobilization was seen (vitamin D-deficient rats [2]; FIG. 4B, second group of animals): 35,100 pmol/day
- bone calcium mobilization activity (serum calcium) (vitamin D-deficient rats [2]; FIG. 4A): relatively low, or little, activity in mobilizing calcium from bone
- transcriptional activity in bone cells relative to 1α,25-dihydroxyvitamin D3 [3, 5]: 5 times
- intestinal calcium transport activity at 260 pmol/day (vitamin D-deficient rats [4]; 260 pmol/day for 4 consecutive days, FIG. 5A): did not result in any activity
- intestinal calcium transport at 780 pmol/day (vitamin D-deficient rats [4]): promotes intestinal calcium transport
- dose at which any significant effect on intestinal calcium transport was seen (vitamin D-deficient rats [4]; FIG. 5A): 780 pmol/day
- intestinal calcium transport activity (vitamin D-deficient rats [4]; FIG. 5A, overall): relatively low, or little, intestinal calcium transport activity
- intestinal calcium transport activity compared with native hormone (vitamin D-deficient rats [4]; FIG. 5B, second group of animals): significantly less than 1,25(OH)3D3

Compound: C=C1/C(=C\C=C2/CCC[C@]3(C)[C@@H]([C@H](C)CCCC(C)(C)O)CC[C@@H]23)C[C@@H](O)C[C@@H]1O [1,25(OH)2D3, 1α,25-dihydroxyvitamin D3, reference compound]
- EC50 (HL-60 cells): 3 nM
- bone calcium mobilization activity (serum calcium) (vitamin D-deficient rats [2]; FIG. 4A): increased serum calcium levels at all dosages
- intestinal calcium transport at 780 pmol/day (vitamin D-deficient rats [4]): significant increase
